The target of this assay is Polθ protein (amino acids 2-2590) (Homo sapiens, UniProt O75417). In words: Polθ full length enzyme potency assay (PicoGreen). The note with it: full length N-His, C-term FLAG tagged Polθ, PicoGreen fluorescence, 12 point concentration response; for IC50: Polθ IC50 (nM).

The results in this text go back to patent US12358886B2, “Heterocyclic compounds for use in the treatment of cancer” (Artios Pharma Limited, priority 2019, dated 2025).

pIC50: −log10 of the molar value. Where two headings read alike, the source gives them in different places.

Chain of Polθ protein (amino acids 2-2590) (O75417 2-2590): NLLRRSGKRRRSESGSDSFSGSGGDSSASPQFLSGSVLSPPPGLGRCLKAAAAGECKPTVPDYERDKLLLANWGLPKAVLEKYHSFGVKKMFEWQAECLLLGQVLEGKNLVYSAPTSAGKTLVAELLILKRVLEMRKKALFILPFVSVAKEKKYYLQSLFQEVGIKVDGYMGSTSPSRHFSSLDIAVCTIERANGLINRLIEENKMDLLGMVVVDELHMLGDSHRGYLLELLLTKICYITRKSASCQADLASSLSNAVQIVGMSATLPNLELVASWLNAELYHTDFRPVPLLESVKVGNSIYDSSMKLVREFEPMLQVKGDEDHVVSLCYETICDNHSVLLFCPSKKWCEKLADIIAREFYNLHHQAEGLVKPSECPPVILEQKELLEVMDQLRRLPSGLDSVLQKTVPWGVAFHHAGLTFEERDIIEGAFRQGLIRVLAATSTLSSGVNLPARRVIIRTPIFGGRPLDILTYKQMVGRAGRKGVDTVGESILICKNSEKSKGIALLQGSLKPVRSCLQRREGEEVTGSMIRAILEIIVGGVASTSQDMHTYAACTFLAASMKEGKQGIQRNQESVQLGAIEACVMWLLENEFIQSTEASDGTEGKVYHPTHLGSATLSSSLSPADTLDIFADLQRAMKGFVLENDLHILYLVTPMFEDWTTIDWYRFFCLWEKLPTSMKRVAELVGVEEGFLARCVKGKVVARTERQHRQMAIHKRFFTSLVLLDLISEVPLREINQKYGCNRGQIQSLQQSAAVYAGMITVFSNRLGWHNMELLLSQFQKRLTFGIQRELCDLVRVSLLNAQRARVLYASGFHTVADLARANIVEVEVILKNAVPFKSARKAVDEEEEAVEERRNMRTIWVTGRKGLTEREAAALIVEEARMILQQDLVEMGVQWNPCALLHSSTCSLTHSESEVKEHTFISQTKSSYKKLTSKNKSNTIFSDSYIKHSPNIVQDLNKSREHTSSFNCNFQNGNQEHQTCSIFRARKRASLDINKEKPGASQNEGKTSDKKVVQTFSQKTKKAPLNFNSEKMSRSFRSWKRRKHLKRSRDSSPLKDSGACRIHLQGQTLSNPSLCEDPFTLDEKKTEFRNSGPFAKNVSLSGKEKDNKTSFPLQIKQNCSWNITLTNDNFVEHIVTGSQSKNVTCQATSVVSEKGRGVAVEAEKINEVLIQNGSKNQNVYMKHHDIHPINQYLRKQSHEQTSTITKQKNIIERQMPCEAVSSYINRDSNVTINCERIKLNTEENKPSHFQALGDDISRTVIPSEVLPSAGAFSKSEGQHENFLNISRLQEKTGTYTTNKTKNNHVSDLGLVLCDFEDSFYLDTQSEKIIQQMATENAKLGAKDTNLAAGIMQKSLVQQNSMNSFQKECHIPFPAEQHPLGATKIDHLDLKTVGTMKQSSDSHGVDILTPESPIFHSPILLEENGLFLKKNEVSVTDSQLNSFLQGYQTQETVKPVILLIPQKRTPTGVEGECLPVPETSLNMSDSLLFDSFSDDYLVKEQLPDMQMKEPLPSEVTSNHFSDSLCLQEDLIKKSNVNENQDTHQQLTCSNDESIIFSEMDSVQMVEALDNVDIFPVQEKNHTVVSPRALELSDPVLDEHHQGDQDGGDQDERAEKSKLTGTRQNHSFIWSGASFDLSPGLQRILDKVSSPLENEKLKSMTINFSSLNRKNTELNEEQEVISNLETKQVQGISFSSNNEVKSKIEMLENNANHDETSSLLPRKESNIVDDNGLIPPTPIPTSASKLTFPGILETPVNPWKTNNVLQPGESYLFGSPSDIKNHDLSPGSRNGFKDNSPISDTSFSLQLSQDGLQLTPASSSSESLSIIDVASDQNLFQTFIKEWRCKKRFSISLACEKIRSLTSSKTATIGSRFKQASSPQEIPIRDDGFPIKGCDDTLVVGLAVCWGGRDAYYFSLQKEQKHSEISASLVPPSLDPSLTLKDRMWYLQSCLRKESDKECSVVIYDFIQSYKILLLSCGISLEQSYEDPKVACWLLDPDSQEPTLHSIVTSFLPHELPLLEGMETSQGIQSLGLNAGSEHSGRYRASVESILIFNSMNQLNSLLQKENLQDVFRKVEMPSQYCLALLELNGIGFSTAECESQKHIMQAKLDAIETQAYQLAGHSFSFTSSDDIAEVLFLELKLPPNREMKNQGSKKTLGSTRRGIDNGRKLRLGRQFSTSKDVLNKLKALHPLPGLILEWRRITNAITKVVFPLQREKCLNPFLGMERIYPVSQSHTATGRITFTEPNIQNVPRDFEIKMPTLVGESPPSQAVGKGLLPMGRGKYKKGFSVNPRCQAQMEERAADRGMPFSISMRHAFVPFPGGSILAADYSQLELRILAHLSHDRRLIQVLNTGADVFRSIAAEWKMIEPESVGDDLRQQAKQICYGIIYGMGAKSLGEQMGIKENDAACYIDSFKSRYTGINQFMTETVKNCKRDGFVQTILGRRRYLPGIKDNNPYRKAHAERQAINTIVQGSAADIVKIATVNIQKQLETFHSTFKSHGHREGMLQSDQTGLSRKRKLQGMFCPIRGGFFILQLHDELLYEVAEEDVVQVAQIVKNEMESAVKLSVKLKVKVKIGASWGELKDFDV

As for `Cc1cccc(N(C)C(=O)[C@@H]2COC(=O)N2c2cc(C(F)(F)F)cc(C)n2)c1` [Example 58, (S)—N-Methyl-3-(6-methyl-4-(trifluoromethyl)pyridin-2-yl)-2-oxo-N-(m-tolyl)oxazolidine-4-carboxamide], the pIC50 (commonly the IC50 on a negative log10 scale, so that one unit is a factor of ten) (read-out: Polθ IC50) was 8.15.

As to `Cc1cc(C(F)(F)F)cc(N2C(=O)OC[C@H]2C(=O)N(C)c2ccc3cccnc3c2)n1` [Example 178, (S)—N-Methyl-3-(6-methyl-4-(trifluoromethyl)pyridin-2-yl)-2-oxo-N-(quinolin-7-yl)oxazolidine-4-carboxamide], the IC50 (in general, the concentration needed to halve the response being measured) stood at 833 nM.

With `Cc1cc(C)c(C#N)c(N2C[C@@H](O)C[C@H]2C(=O)N(C)c2cccc(CF)c2)n1` [Example 11, (2S,4S)-1-(3-Cyano-4,6-dimethylpyridin-2-yl)-N-(3-(fluoromethyl)phenyl)-4-hydroxy-N-methylpyrrolidine-2-carboxamide], the IC50 amounted to 452 nM.

The molecule `Cc1cc(C(F)(F)F)cc(N2C(=O)N(CCN(C)C)C[C@H]2C(=O)N(C)c2ccc(F)c(Cl)c2)n1` [Example 182, (S)-N-(3-Chloro-4-fluorophenyl)-1-(2-(dimethylamino)ethyl)-N-methyl-3-(6-methyl-4-(trifluoromethyl)pyridin-2-yl)-2-oxoimidazolidine-4-carboxamide] gave an IC50 of 61 nM.

Turning to `CCN(C(=O)[C@@H]1[C@H](O)[C@H](O)CN1c1nc(C)cc(C(F)(F)F)c1C#N)c1ccc(F)c(F)c1` [Example 56, (2S,3S,4R)-1-(3-Cyano-6-methyl-4-(trifluoromethyl)pyridin-2-yl)-N-(3,4-difluorophenyl)-N-ethyl-3,4-dihydroxypyrrolidine-2-carboxamide], the IC50 amounted to 42 nM.

`Cc1cc(C(F)(F)F)c(C#N)c(N2CCC[C@H]2C(=O)N(C)c2ccc3ccn(C)c3n2)n1` [Example 243, (S)-1-(3-Cyano-6-methyl-4-(trifluoromethyl)pyridin-2-yl)-N-methyl-N-(1-methyl-1H-pyrrolo[2,3-b]pyridin-6-yl)pyrrolidine-2-carboxamide] displayed an IC50 of 39 nM.

The molecule `Cc1cc(C(F)(F)F)cc(N2C(=O)[C@H]3OC(C)(C)O[C@H]3[C@H]2C(=O)N(C)c2ccc(F)c(Cl)c2F)n1` [Example 69, (3aS,4S,6aS)—N-(3-Chloro-2,4-difluorophenyl)-N,2,2-trimethyl-5-(6-methyl-4-(trifluoromethyl)-pyridin-2-yl)-6-oxotetrahydro-4H-[1,3]dioxolo[4,5-c]pyrrole-4-carboxamide] returned an IC50 of 69 nM.

Molecule `Cc1cc(C(F)(F)F)c(C#N)c(N2C[C@@H](O)C[C@H]2C(=O)N(C)c2cc(F)cc(F)c2)n1` [Example 17, (2S,4S)-1-(3-Cyano-6-methyl-4-(trifluoromethyl)pyridin-2-yl)-N-(3,5-difluorophenyl)-4-hydroxy-N-methylpyrrolidine-2-carboxamide] displayed an IC50 of 97 nM.

Turning to `CCN(C(=O)[C@@H]1C[C@H](N2CCO[C@H](CO)C2)CN1c1nc(C)cc(C(F)(F)F)c1C#N)c1ccc(F)c(Cl)c1` [Example 154, (2S,4S)-N-(3-Chloro-4-fluorophenyl)-1-(3-cyano-6-methyl-4-(trifluoromethyl)pyridin-2-yl)-N-ethyl-4-((S)-2-(hydroxymethyl)morpholino)pyrrolidine-2-carboxamide], the concentration for half-maximal inhibition (IC50) stood at 15 nM.

Take `Cc1cc(C(F)(F)F)cc(N2C(=O)[C@H](O)[C@H](O)[C@H]2C(=O)N(C)c2ccc(F)c(Cl)c2F)n1` [Example 71, (2S,3R,4R)—N-(3-Chloro-2,4-difluorophenyl)-3,4-dihydroxy-N-methyl-1-(6-methyl-4-(trifluoromethyl)pyridin-2-yl)-5-oxopyrrolidine-2-carboxamide]: the midpoint of inhibition, the IC50, lay at 10 nM.

Turning to `Cc1cc(C(F)(F)F)c(C#N)c(N2[C@@H](C)CC[C@H]2C(=O)N(C)c2ccc(F)c(Cl)c2)n1` [Example 242, (2S,5S)—N-(3-Chloro-4-fluorophenyl)-1-(3-cyano-6-methyl-4-(trifluoromethyl)pyridin-2-yl)-N,5-dimethylpyrrolidine-2-carboxamide], the IC50 worked out at 311 nM.

`Cc1cc(C(F)(F)F)c(C#N)c(N2CCC[C@H]2C(=O)N(C)c2cc(Cl)c3ccn(C)c3n2)n1` [Example 244, (S)—N-(4-Chloro-1-methyl-pyrrolo[2,3-b]pyridin-6-yl)-1-[3-cyano-6-methyl-4-(trifluoromethyl)-2-pyridyl]-N-methyl-pyrrolidine-2-carboxamide] registered an IC50 of 130 nM.

`Cc1cc(C(F)(F)F)cc(N2C(=O)NC[C@H]2C(=O)N(C)c2ccc3cc[nH]c3n2)n1` [Example 233, (S)—N-Methyl-3-(6-methyl-4-(trifluoromethyl)pyridin-2-yl)-2-oxo-N-(1H-pyrrolo[2,3-b]pyridin-6-yl)imidazolidine-4-carboxamide]: it took 3 nM to reach half-maximal inhibition (IC50).

Turning to `Cc1cc(C(F)(F)F)c(C#N)c(N2CCC[C@H]2C(=O)N(C)c2ccccc2)n1` [Example 1, (S)-1-(3-Cyano-6-methyl-4-(trifluoromethyl)pyridin-2-yl)-N-methyl-N-phenylpyrrolidine-2-carboxamide], the IC50 turned out to be 72 nM.

`Cc1cccc(N(C)C(=O)[C@@H]2C[C@H](O)CN2c2cc(C)c(Cl)c(C)n2)c1` [Example 29, (2S,4S)-1-(5-Chloro-4,6-dimethylpyridin-2-yl)-4-hydroxy-N-methyl-N-(m-tolyl)pyrrolidine-2-carboxamide] returned an IC50 of 172 nM.

With `Cc1cccc(N(C)C(=O)[C@@H]2CCC(=O)N2c2cc(C(F)(F)F)cc(C)n2)c1` [Example 59, (S)—N-Methyl-1-(6-methyl-4-(trifluoromethyl)pyridin-2-yl)-5-oxo-N-(m-tolyl)pyrrolidine-2-carboxamide], the IC50 turned out to be 7 nM.

Take `CCN(C(=O)[C@@H]1C[C@H](N[C@@H]2CCOC[C@H]2O)CN1c1cc(C(F)(F)F)cc(C)n1)c1ccc(F)c(F)c1` [Example 131, (2S,4S)-N-(3,4-Difluorophenyl)-N-ethyl-4-(((3S,4R)-3-hydroxytetrahydro-2H-pyran-4-yl)amino)-1-(6-methyl-4-(trifluoromethyl)pyridin-2-yl)pyrrolidine-2-carboxamide]: half-maximal inhibition (IC50) required 248 nM.

Consider `CCN(C(=O)[C@H]1C[C@@H](N(C)C2CCN(C(C)=O)C2)CN1c1nc(C)cc(C)c1C#N)c1cccc(C)c1` (stereo in doubt) [Example 52, (2R,4R)-4-((1-Acetylpyrrolidin-3-yl)(methyl)amino)-1-(3-cyano-4,6-dimethylpyridin-2-yl)-N-ethyl-N-(m-tolyl)pyrrolidine-2-carboxamide], for which 588 nM corresponded to half-maximal inhibition (IC50).

As for `CCN(C(=O)[C@@H]1C[C@H](N[C@H]2CCC[C@H]2O)CN1c1cc(C(F)(F)F)cc(C)n1)c1ccc(F)c(F)c1` [Example 134, (2S,4S)-N-(3,4-Difluorophenyl)-N-ethyl-4-(((1S,2R)-2-hydroxycyclopentyl)amino)-1-(6-methyl-4-(trifluoromethyl)pyridin-2-yl)pyrrolidine-2-carboxamide], the concentration for half-maximal inhibition (IC50) stood at 124 nM.

`Cc1cc(C(F)(F)F)cc(N2C(=O)OC[C@H]2C(=O)N(C)c2ccc(F)c(O)c2)n1` [Example 106, (S)—N-(4-Fluoro-3-hydroxyphenyl)-N-methyl-3-(6-methyl-4-(trifluoromethyl)pyridin-2-yl)-2-oxooxazolidine-4-carboxamide]: half-maximal inhibition (IC50) was put at 324 nM.

Turning to `Cc1cc(C(F)(F)F)cc(N2C(=O)N(CC(O)CO)C[C@H]2C(=O)N(c2ccc(F)c(Cl)c2)C2CC2)n1` (stereo partly drawn) [Example 231, (4S)—N-(3-Chloro-4-fluorophenyl)-N-cyclopropyl-1-(2,3-dihydroxypropyl)-3-(6-methyl-4-(trifluoromethyl)pyridin-2-yl)-2-oxoimidazolidine-4-carboxamide], the IC50 was found to be 94 nM.

With `CCN(C(=O)[C@@H]1C[C@H](F)CN1c1nc(C)cc(C)c1C#N)c1ccc(F)c(F)c1` [Example 37, (2S,4S)-1-(3-Cyano-4,6-dimethylpyridin-2-yl)-N-(3,4-difluorophenyl)-N-ethyl-4-fluoropyrrolidine-2-carboxamide], half-maximal inhibition (IC50) required 248 nM.

The molecule `Cc1cc(C(F)(F)F)cc(N2C(=O)N(CC(O)CN(C)C)C[C@H]2C(=O)N(C)c2ccc(F)c(Cl)c2F)n1` (stereo partly drawn) [Example 214, (4S)—N-(3-Chloro-2,4-difluorophenyl)-1-(3-(dimethylamino)-2-hydroxypropyl)-N-methyl-3-(6-methyl-4-(trifluoromethyl)pyridin-2-yl)-2-oxoimidazolidine-4-carboxamide] registered an IC50 of 11 nM.

`Cc1cc(C(F)(F)F)cc(N2C(=O)N(CC(C)O)C[C@H]2C(=O)N(C)c2ccc(F)c(Cl)c2)n1` (stereo partly drawn) [Example 160, (4S)—N-(3-Chloro-4-fluorophenyl)-1-(2-hydroxypropyl)-N-methyl-3-(6-methyl-4-(trifluoromethyl)pyridin-2-yl)-2-oxoimidazolidine-4-carboxamide] returned an IC50 of 6 nM.

`Cc1cc(C(F)(F)F)cc(N2C(=O)OC[C@H]2C(=O)N(C)c2ccc(Cl)cc2Cl)n1` [Example 171, (S)-N-(2,4-Dichlorophenyl)-N-methyl-3-(6-methyl-4-(trifluoromethyl)pyridin-2-yl)-2-oxooxazolidine-4-carboxamide] had a half-inhibitory concentration (IC50) of 68 nM.

In turn, `Cc1cc(C(F)(F)F)cc(N2C(=O)OC[C@H]2C(=O)N(C)c2ccc(F)c(C)c2)n1` [Example 86, (S)-N-(4-Fluoro-3-methylphenyl)-N-methyl-3-(6-methyl-4-(trifluoromethyl)pyridin-2-yl)-2-oxooxazolidine-4-carboxamide] came in with a half-inhibitory concentration (IC50) of 9 nM.

The molecule `CCN(C(=O)[C@@H]1C[C@H](N2CCOC(CO)C2)CN1c1nc(C)cc(C(F)(F)F)c1C#N)c1ccc(C)c(Cl)c1` (stereo partly drawn) [Example 149, (2S,4S)-N-(3-Chloro-4-methylphenyl)-1-(3-cyano-6-methyl-4-(trifluoromethyl)pyridin-2-yl)-N-ethyl-4-(2-(hydroxymethyl)morpholino)pyrrolidine-2-carboxamide] returned an IC50 of 5 nM.

`Cc1cc(C(F)(F)F)cc(N2C(=O)N(CC(N)=O)C[C@H]2C(=O)N(C)c2ccc(F)c(Cl)c2)n1` [Example 184, (S)-1-(2-Amino-2-oxoethyl)-N-(3-chloro-4-fluorophenyl)-N-methyl-3-(6-methyl-4-(trifluoromethyl)-pyridin-2-yl)-2-oxoimidazolidine-4-carboxamide] registered an IC50 of 13 nM.
